Values of other authors as cited in US10913844B2, “Plasticized thermoset resin, and associated cured resin, method of curing, and article comprising cured resin” (The University of Massachusetts, priority 2016, dated 2021).

Conditions: solvent furfural

solubility of HMTA in furfural: less than two
Compound: C1N2CN3CN1CN(C2)C3 [HMTA, hexamethylenetetramine]
